Data as given in the CheMixHub viscosity set.

Assay: xn = mol fraction of the nth substance listed

CCCC[NH3+].O=[N+]([O-])[O-] + CCCO
Conditions	viscosity [mPa·s]
293.15 K, 101 kPa, x1 = 0.9008	83.35

Cc1ccc(C(C)C)c(O)c1 + CCCCCCCCCCCC(=O)O
100 kPa, x2 = 0.45
Conditions	viscosity [mPa·s]
303.15 K	12.43
308.15 K	10.12
313.15 K	8.37
318.15 K	7.01
323.15 K	5.95

ClCCCCl + CCC(C)(C)O
viscosity [mPa·s], 101 kPa
Conditions	x1 = 0.101	x1 = 0.2021	x1 = 0.3082	x1 = 0.4082	x1 = 0.5066	x1 = 0.608	x1 = 0.7071	x1 = 0.808	x1 = 0.9003
298.15 K	2.779	1.877	1.393	1.18	1.061	0.9826	0.9381	0.9128	0.9114
313.15 K	1.508	1.164	0.9559	0.8566	0.7978	0.7579	0.7469	0.7328	0.7431

CCCN(CCC)CCC + c1ccccc1
viscosity [mPa·s], 101 kPa
Conditions	x1 = 0.01039	x1 = 0.02061	x1 = 0.03067	x1 = 0.04025	x1 = 0.04975	x1 = 0.05958	x1 = 0.06933	x1 = 0.07883	x1 = 0.08893
303.15 K	0.5599	0.5574	0.5552	0.5532	0.5515	0.5487	0.5467	0.5453	0.5429
313.15 K	0.4902	0.4877	0.4859	0.4836	0.4818	0.4793	0.4772	0.476	0.4738

CCN(CC)c1ccccc1 + O=S1(=O)CCCC1
viscosity [mPa·s], 101 kPa
Conditions	x1 = 0.0999	x1 = 0.2008	x1 = 0.2993	x1 = 0.4001	x1 = 0.5001	x1 = 0.6027	x1 = 0.7023	x1 = 0.7999	x1 = 0.8991
303.15 K	8.19	6.62	5.41	4.44	3.7	3.09	2.63	2.26	1.96
308.15 K	7.26	5.88	4.81	3.96	3.3	2.77	2.36	2.04	1.77
313.15 K	6.45	5.25	4.31	3.54	2.96	2.49	2.13	1.84	1.6
